The results in this text go back to patent publication US20220265817A1, “THERAPEUTIC COMPOSITIONS AND METHODS FOR TREATING HEPATITIS B” (priority 2017, published 2022).

Data set [1] concerns HBV genome. The data set is described as follows: siRNA IC50 (Table A). More on the design: species or system Hepatitis B virus.
Data set [2] has as its system HBV rcDNA in HepDE19 cells. The data set is described as follows: HepDE19 cell culture system, rcDNA quantitation using bDNA assay, MacSynergy II. The conditions noted are these: for AVERAGE % INHIBITION: COMPOUND 3 0.000 μM. The class given is cell-based, human hepatoma cell line. On the procedure:
In vitro combination studies were conducted using the method of Prichard and Shipman (Prichard M N, and Shipman C Jr., Antiviral Research, 1990, 14 (4-5), 181-205; and Prichard M N, et. al., MacSynergy II). HepDE19 cell culture system is a HepG2 (human hepatocarcinoma) derived cell line that supports HBV DNA replication and cccDNA formation in a tetracycline (Tet)-regulated manner and produces HBV rcDNA and a detectable reporter molecule dependent on the production and maintenance of cccDNA (Guo et al 2007. J. Virol 81:12472-12484). HepDE19 (50,000 cells/well) were plated in 96 well collagen-coated tissue-culture treated microtiter plates in DMEM/F12 medium supplemented with 10% fetal bovine serum, 1% penicillin-streptomycin and 1 μg/ml tetracycline and incubated in a humidified incubator at 37° C. and 5% CO2 overnight. Next day, the cells were switched to fresh medium without tetracycline and incubated for 4 hrs at 37° C. and 5% CO2. […] The two inhibitors were tested both singly as well as in combinations in a checkerboard fashion such that each concentration of inhibitor A was combined with each concentration of inhibitor B to determine their combination effects on inhibition of rcDNA production. Following a 7 day-incubation of cells with compound combinations, the level of rcDNA present in the inhibitor-treated wells was measured using a Quantigene 2.0 bDNA assay kit (Affymetrix, Santa Clara, Calif.) with HBV specific custom probe set and manufacturers instructions. […] The RLU data from the single compound treated cells were analyzed using XL-Fit module in Microsoft Excel to determine EC50 values using a 4-parameter curve fitting algorithm. Concurrently, the effect of compounds on cell viability was assessed using replicate plates, plated at a density of 5,000 cells/well and incubated for 4 days, to determine the ATP content as a measure of cell viability using the cell-titer glo reagent (CTG; Promega Corporation, Madison, Wis.) as per manufacturer's instructions.
In vitro combination studies were conducted using the method of Prichard and Shipman (Prichard M N, Shipman C, Jr., Antiviral Res, 14, 181-205 (1990)). The HepDE19 cell line was developed as described in Guo et al. (Guo et al., J Virol, 81, 12472-12484 (2007)). It is a human hepatoma cell line stably transfected with the HBV genome, and which can express HBV pregenomic RNA and support HBV rcDNA (relaxed circular DNA) synthesis in a tetracycline-regulated manner. HepDE19 cells were plated in 96 well tissue-culture treated microtiter plates in DMEM/F12 medium supplemented with 10% fetal bovine serum+1% penicillin-streptomycin without tetracycline and incubated in a humidified incubator at 37° C. and 5% CO2 overnight. […] The two inhibitors were tested both singly as well as in combinations in a checkerboard fashion such that each concentration of inhibitor A was combined with each concentration of inhibitor B to determine their combination effects on inhibition of rcDNA production. Following a 48 hour-incubation, the level of rcDNA present in the inhibitor-treated wells was measured using a bDNA assay (Affymetrix) with HBV specific custom probe set and manufacturers instructions. […] Concurrently, the effect of inhibitor combinations on cell viability was assessed using replicate plates that were used to determine the ATP content as a measure of cell viability using the Cell-TiterGlo reagent (Promega) as per manufacturer's instructions.
In vitro combination studies were conducted using the method of Prichard and Shipman (1990) (Prichard M N, Shipman C, Jr. 1990. A three-dimensional model to analyze drug-drug interactions. Antiviral Res 14:181-205 AND Prichard M N. 1992. MacSynergy II, University of Michigan).

The test system of data set [3] is D type HBV in primary human hepatocytes (HBsAg). The data set can be described thus: microbe, parasite or virus in culture. The conditions noted are these: for AVERAGE % INHIBITION: COMPOUND 22 0 nM. The class given is cell-based. On the procedure:
(§1) The mouse liver perfusion was applied to isolate PHHs. The isolated hepatocytes were further purified by Percoll. The cells were resuspended with culture media and seeded into the 96-well plates (6×10^4 cell/well) or 48-well plates (1.2×10^5 cell/well). The PHHs were infected with a D type HBV one day post seeding (day 1).
(§2) On day 2, the test compounds were diluted and added into the cell culture plates. The culture media containing the compounds were refreshed every other day. The cell culture supernatants were collected on day 8 for the HBV DNA and antigen determinations.
(§3) The compounds were tested at 7 concentrations, 3-fold dilution, in triplicate.
(§4) Two compounds were tested at 5×5 matrix, in triplicate plates.
(§5) HBsAg/HBeAg in the culture supernatants harvested on days 8 were measured by the HBsAg/HBeAg ELISA kit (Autobio) according to the manual. The samples were diluted with PBS to get the signal in the range of the standard curve. The inhibition rates were calculated with the formula below. The combination effect was analyzed by the MacSynergy software.
% Inh. HBsAg=[1-HBsAg quantity of sample/HBV quantity of DMSO control]×100.

Data set [4] deals with D type HBV in primary human hepatocytes. The data set is described as follows: microbe, parasite or virus in culture. The class given is cell-based. To be noted: for AVERAGE % INHIBITION: COMPOUND 22 0 nM. On the procedure:
as §1, §2, §3, §4
DNA in the culture supernatants harvested on days 8 were isolated with QIAamp 96 DNA Blood Kit (Qiagen-51161). For each sample, 100 μl of the culture supernatants was used to extract DNA. The DNA was eluted with 100 μl, 150 μl or 180 μl of AE. HBV DNA in the culture supernatants was quantified by qPCR. The combination effect was analyzed by the MacSynergy software. The primers are described below.

Data set [5] concerns D type HBV in primary human hepatocytes (HBeAg). The data set can be described thus: microbe, parasite or virus in culture. It counts as cell-based. On the procedure: as §1, §2, §3, §4, §5
% Inh. HBeAg=[1-HBeAg quantity of sample/HBV quantity of DMSO control]×100.

The mark [6] stands for this setting: Hepatitis B virus, Hepatocyte, read-out: AVERAGE % INHIBITION HBsAg.
[7] abbreviates: Hepatitis B virus, Hepatocyte, read-out: Inhibitor A EC50.
Where [8] appears, read: Hepatitis B virus, Hepatocyte, read-out: Inhibitor EC50.
[9] abbreviates: Hepatitis B virus, Hepatocyte, read-out: AVERAGE % […] DNA.
[10] abbreviates: Hepatitis B virus, HepDE19, read-out: AVERAGE % INHIBITION

Usually pIC50 stands for the negative decadic logarithm of the IC50, by convention in mol/L. A word on the pEC50: it is −log10 of the EC50, conventionally taken in molar units.

pEC50, pIC50: −log10 of the molar value. Read-outs that look alike come from different tables or passages of the source. [UNA] = unlocked nucleic acid; m = 2'-O-methyl; r = 2'-OH (RNA)

In the case of “1m: siRNA duplex SEQ ID NO: 1 and 2 targeting the HBV genome (chain 1 AGGUAUGUUGCCCGUUUGUUU; chain 2 ACAAACGGGCAACAUACCUUU; chain 1: sugars from the 5' end [UNA]mrmrrmmrrrrrmrmrrr[UNA][UNA], backbone not given here; chain 2: sugars from the 5' end rrrrrrmrrrrrrrmrrrr[UNA][UNA], backbone not given here) [Compound 1m]”, the pIC50 in data set [1] was 8.84.
Still for that read-out and setting: the figure for “2m: siRNA duplex SEQ ID NO: 3 and 4 targeting the HBV genome (chain 1 GCUCAGUUUACUAGUGCCAUU; chain 2 UGGCACUAGUAAACUGAGCUU; chain 1: sugars from the 5' end [UNA]rmmrmrrrrrrrrrrrmrr[UNA], backbone not given here; chain 2: sugars from the 5' end r9 m1 r7 m1 r3, backbone not given here) [Compound 2m]” is 9.43.
On the same count and under the same terms, the figure for “3m: siRNA duplex SEQ ID NO: 5 and 6 targeting the HBV genome (chain 1 CCGUGUGCACUUCGCUUCAUU; chain 2 UGAAGCGAAGUGCACACGGUU; chain 1: sugars from the 5' end [UNA]rrrmmrrrrrmrrrmmrr[UNA][UNA], backbone not given here; chain 2: sugars from the 5' end rrrrrrrrrrrmrrrrrmr[UNA][UNA], backbone not given here) [Compound 3m]” is 10.22.
`CCOC(=O)C1=C(CN2CCOCC2)NC(c2nccs2)=NC1c1ccc(F)cc1Br` (centres unmarked) [GLS4]: the “AVERAGE % INHIBITION” value in data set [2] (GLS-4 0.008 μM) is given as −1.17%; in data set [2] (GLS-4 0.016 μM), −5.82%; in data set [2] (GLS-4 0.031 μM), 7.03%; in data set [2] (GLS-4 0.063 μM) it was 38.95%; in data set [2] (GLS-4 0.125 μM) it was 77.82%; in data set [2] (GLS-4 0.250 μM), 94.65%. Also, the “AVERAGE % INHIBITION” value in data set [2] (GLS-4 0.500 μM) was found to be 97.48%; in data set [2] (GLS-4 1.000 μM), 98.51%; in data set [2] (GLS-4 2.000 μM), 98.22%. In addition, the negative logarithm of the EC50 (pEC50) in data set [2] (rcDNA, bDNA assay, DE19 cells, read-out: Inhibitor B EC50) is 7.11.
As for `CC(C)OC(=O)[C@H](C)N[P@](=O)(CO[C@H](C)Cn1cnc2c(N)ncnc21)Oc1ccccc1` [TAF, tenofovir alafenamide, reference compound], the inhibition at 50 pM was -7.35% in data set [3] (setting [6]) and -8.77% in data set [4] (setting [9]). In addition, the inhibition at 0.00012 µM in data set [3] (setting [6]) was determined as 23%; in data set [4] (setting [9]), 6.36%. Also, the inhibition at 0.00014 µM in data set [3] (setting [6]) was determined as 12.8%. In addition, the inhibition at 0.00037 µM in data set [3] (setting [6]) amounted to 7.04%; in data set [4] (setting [9]) it was 11.6%. The inhibition at 0.00041 µM in data set [3] (setting [6]) turned out to be 11.3%; in data set [4] (setting [9]), 28.8%. In addition, the inhibition at 0.00123 µM in data set [3] (setting [6]) amounted to 11%; in data set [4] (setting [9]), 63.4%. In addition, the inhibition at 0.00333 µM in data set [3] (setting [6]) turned out to be 16.1%; in data set [4] (setting [9]) it was 42.6%. Moreover, the figures for the inhibition at 0.0037 µM in data set [3] (setting [6]) and in data set [4] (setting [9]) were -6.72% and 78.3%, respectively. Moreover, the figures for the inhibition at 0.01 µM in data set [3] (setting [6]) and in data set [4] (setting [9]) were 6.38% and 43.3%, respectively. Further, the pEC50 is below 7.00 in data set [3] (setting [7]); below 7.00 in data set [3] (setting [8]); 9.39 in data set [4] (setting [7]); 9.39 in data set [4] (setting [8]); 7.35 in data set [2] (Hepatitis B virus, HepDE19, read-out: Inhibitor B EC50); below 7.00 in data set [5] (setting [8]). The “AVERAGE % INHIBITION” value in data set [3] (TAF 0.1234568 nM) is 29.82%; in data set [3] (TAF 0.3703704 nM), 10.78%; in data set [3] (TAF 1.1111111 nM) it was 20.81%; in data set [3] (TAF 3.3333333 nM), 9.06%; in data set [3] (TAF 10 nM), 7.97%; in data set [4] (TAF 0.12 nM), −2.6%. Besides, the “AVERAGE % INHIBITION” value in data set [4] (TAF 0.37 nM) is reported as −1.92%; in data set [4] (TAF 3.33 nM), 40.16%; in data set [4] (TAF 10.00 nM), 50.21%; in data set [4] (TAF […]) it was 4.95%; in data set [5] (TAF 0.05 nM, COMPOUND 3 0.00 nM) it was 1.17%; in data set [5] (TAF 0.12 nM, COMPOUND 22 0 nM) it was 26.61%. For the same compound, the “AVERAGE % INHIBITION” value is on record as −2.78% in data set [5] (TAF 0.14 nM, COMPOUND 3 0.00 nM); 9.9% in data set [5] (TAF 0.37 nM, COMPOUND 22 0 nM); 1.76% in data set [5] (TAF 0.41 nM, COMPOUND 3 0.00 nM); 9.91% in data set [5] (TAF 1.23 nM, COMPOUND 3 0.00 nM); 19.69% in data set [5] (TAF 3.33 nM, COMPOUND 22 0 nM); 11.87% in data set [5] (TAF 3.70 nM, COMPOUND 3 0.00 nM). Also, the “AVERAGE % INHIBITION” value in data set [5] (TAF 10.00 nM, COMPOUND 22 0 nM) was 22.85%; in data set [5] (TAF […], COMPOUND 22 0 nM), 22.56%. Further, the inhibition at 0.000781 µM in data set [2] (setting [10]) is -4.76%. Besides, the inhibition at 0.001563 µM in data set [2] (setting [10]) was 3.49%. Also, in data set [2] (setting [10]), the inhibition at 0.003125 µM came out at 0.6%. Also, the inhibition at 0.00625 µM in data set [2] (setting [10]) came to 10.6%. Besides, in data set [2] (setting [10]), the inhibition at 0.0125 µM was 28.6%. Besides, in data set [2] (setting [10]), the inhibition at 0.025 µM amounted to 20%. Also, in data set [2] (setting [10]), the inhibition at 0.05 µM is 53.2%. Moreover, in data set [2] (setting [10]), the inhibition at 0.1 µM is 77.6%. The inhibition at 0.2 µM in data set [2] (setting [10]) amounted to 89.9%.
